In patent publication US20090004287A1, “Disinfectant formulations containing quaternary ammonium compounds and hydrogen peroxide” (priority 2007, published 2009):

What was measured:
P. aeruginosa = experiment: Efficacy against P. aeruginosa dried on microplate wells (growth/no growth, 4 replicates); type: cell-based; settings: 5% fetal bovine serum; for Positive cells out of a total of 4 after 5 min: contact time 5 min, diluted in water of 400 ppm hardness, positive = ineffective disinfection; for Positive cells out of a total of 4 after 10 min: contact time 10 min; for Positive cells out of a total of 4 after 10 min / Positive cells out of a total of 4 after 11 min / Positive cells out of a total of 4 after 13 min / Positive cells out of a total of 4 after 16 min / Positive cells out of a total of 4 after 20 min / Positive cells out of a total of 4 after 21 min / Positive cells out of a total of 4 after 25 min: water of 400 ppm hardness; for Positive cells out of a total of 4 after 11 min: contact time 11 min; for Positive cells out of a total of 4 after 13 min: contact time 13 min; for Positive cells out of a total of 4 after 16 min: contact time 16 min; for Positive cells out of a total of 4 after 20 min: contact time 20 min; for Positive cells out of a total of 4 after 21 min: contact time 21 min; for Positive cells out of a total of 4 after 25 min: contact time 25 min
Protocol: All solutions were diluted in water of 400 ppm hardness and all concentrations were expressed in ppm. Each of the solutions was tested in 4 replicates as described below. The numbers in Table 2 below indicate the number of “positive” cells or ineffective disinfection of 4 replicates. Various contact times noted on the tables were evaluated.
Flat bottom microplate wells were inoculated with 15 μL each of a suspension of 10% P. aeruginosa+5% fetal bovine serum in a saline solution, 4.5×10^7 cfu/mL using a Quadra Tower 400 Series High Throughput apparatus (Tomtec Inc., Hamden, Conn.). The plates were dried with cover open for 40 minutes at 36° C. Then, 120 μL of each test substance was transferred from the deep-well block to the test wells. The test organisms were exposed to the test substance for different contact times, after which the substances were removed with the Quadra and 150 μL of modified AOAC Letheen neutralizer+0.5% Na thiosulfate/growth broth was added to each well. The microplates were incubated at 36° C. for 24 hours and scored for growth/no growth.

[1] = Hydrogen peroxide stability in the presence of didecyldimethylammonium bicarbonate/carbonate; type: physicochemical
Text: Hydrogen Peroxide Stability in the Presence of Didecyldimethylammonium Bicarbonate/-Carbonate

Compound	Positive cells out of a total of 4 after 5 min (P. aeruginosa)	Positive cells out of a total of 4 after 10 min (P. aeruginosa)	Positive cells out of a total of 4 after 11 min (P. aeruginosa)	Positive cells out of a total of 4 after 13 min (P. aeruginosa)	Positive cells out of a total of 4 after 16 min (P. aeruginosa)	Positive cells out of a total of 4 after 20 min (P. aeruginosa)	Positive cells out of a total of 4 after 21 min (P. aeruginosa)	Positive cells out of a total of 4 after 25 min (P. aeruginosa)	% Hydrogen Peroxide Concentration at Time/Temperature: 1 Month/40° C. ([1]; 1 month, 40° C.)	% Hydrogen Peroxide Concentration at Time/Temperature: 1 Month/RT ([1]; 1 month, room temperature)	% Hydrogen Peroxide Concentration at Time/Temperature: 1 Week/40° C. ([1]; 1 week, 40° C.)	% Hydrogen Peroxide Concentration at Time/Temperature: 1 Week/RT ([1]; 1 week, room temperature)	% Hydrogen Peroxide Concentration at Time/Temperature: Initial ([1]; Initial, by weight, analytical accuracy ±3% relative)
OO [H2O2 600 ppm, hydrogen peroxide]	4	4	2	0	0	0	0	0	–	–	–	–	–
OO [H2O2 2,000 ppm, hydrogen peroxide]	0	0	0	0	0	0	0	0	–	–	–	–	–
didecyldimethylammonium carbonate/bicarbonate [Quat 500 ppm]	4	4	4	4	1	0	1	0	–	–	–	–	–
OO [3.0% H2O2, hydrogen peroxide]	–	–	–	–	–	–	–	–	1.82%	2.85%	2.74%	2.99%	3.11%
